Biological target: T1, Chitin synthase 3 (Saccharomyces cerevisiae (strain ATCC 204508 / S288c), UniProt P29465)
T1 sequence (P29465 whole entry): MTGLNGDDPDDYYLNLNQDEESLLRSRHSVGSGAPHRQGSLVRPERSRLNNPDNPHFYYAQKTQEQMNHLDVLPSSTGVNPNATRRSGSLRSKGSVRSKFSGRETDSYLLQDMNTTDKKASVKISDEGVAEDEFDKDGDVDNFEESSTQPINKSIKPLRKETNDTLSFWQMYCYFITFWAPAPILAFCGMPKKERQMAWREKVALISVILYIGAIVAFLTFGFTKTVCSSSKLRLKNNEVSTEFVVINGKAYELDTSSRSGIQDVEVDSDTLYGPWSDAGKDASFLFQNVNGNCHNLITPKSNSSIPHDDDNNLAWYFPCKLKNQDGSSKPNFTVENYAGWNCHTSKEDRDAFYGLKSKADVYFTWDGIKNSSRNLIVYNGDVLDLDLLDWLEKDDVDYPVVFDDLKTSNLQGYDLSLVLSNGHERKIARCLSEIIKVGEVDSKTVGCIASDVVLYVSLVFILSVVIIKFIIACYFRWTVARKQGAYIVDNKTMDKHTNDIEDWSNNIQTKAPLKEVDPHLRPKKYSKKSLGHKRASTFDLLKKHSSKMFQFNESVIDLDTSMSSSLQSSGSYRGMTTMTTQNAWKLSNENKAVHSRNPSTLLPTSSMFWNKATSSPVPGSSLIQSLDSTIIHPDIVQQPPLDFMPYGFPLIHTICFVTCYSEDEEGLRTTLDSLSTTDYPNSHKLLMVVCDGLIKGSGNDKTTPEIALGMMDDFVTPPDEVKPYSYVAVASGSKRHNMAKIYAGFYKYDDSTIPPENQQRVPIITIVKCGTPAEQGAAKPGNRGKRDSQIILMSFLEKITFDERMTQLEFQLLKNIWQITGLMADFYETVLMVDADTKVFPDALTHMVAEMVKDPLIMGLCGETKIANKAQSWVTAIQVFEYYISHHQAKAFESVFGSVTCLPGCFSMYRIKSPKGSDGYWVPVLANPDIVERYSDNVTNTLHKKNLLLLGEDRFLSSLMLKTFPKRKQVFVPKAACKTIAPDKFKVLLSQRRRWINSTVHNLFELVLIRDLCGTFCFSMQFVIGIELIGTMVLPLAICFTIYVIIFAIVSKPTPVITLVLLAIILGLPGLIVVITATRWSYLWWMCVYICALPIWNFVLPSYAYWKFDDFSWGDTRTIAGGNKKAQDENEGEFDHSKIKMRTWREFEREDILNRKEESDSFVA
Assay: Chitin Synthase Assays
Details: pH 7.5; 25 °C
Procedure: Assays were performed in 96-wells microtiter plate with flat bottom. To each well of the plate, 100 µL of WGA solution was added at 50 µg/mL. After incubation at room temperature for at least 16 h the WGA solution was removed by triple washing with distill water. Wells were then blocked by adding 300 µL of BSA blocking buffer (20 mg/mL, 50 mM Tris-HCl, pH 7.5) and incubated for 3 h at room temperature. Microtiter plates were stored until use at -20 °C in blocking buffer. Before usage plates were thawed at 25 °C and thoroughly emptied. The standard reaction mixture in total volume 100 µL contains: UDP-GlcNAc (2.0 mM), GlcNAc (40 mM), MgCl2 (5.0 mM) and digitonin (0.1% w/v) dissolved in pH 7.5 Tris-HCl buffer (50 mM) containing test compounds at a range of concentrations from 0 mM (control) to 3.0 mM. The enzymatic reactions were started by the addition of 0.2 mg/mL solution of trypsin (1-10 µL) and membrane preparation (5-20 µL). Usually four different concentrations of trypsin were te

Structure (SMILES) | IC50 [µM]
COC(=O)CCC(=O)NC[C@H]1O[C@@H](n2ccc(=O)[nH]c2=O)[C@@H](O)C1O (some centres not stated) [5'-(N-succinyl)-5'-amino-5'-deoxyuridine methyl ester (7)] | 800
O=C(CCC(=O)NCC(=O)NC[C@H]1O[C@@H](n2ccc(=O)[nH]c2=O)[C@@H](O)C1O)NCC(=O)NC[C@H]1O[C@@H](n2ccc(=O)[nH]c2=O)[C@@H](O)C1O (some centres not stated) [Dimer 15 (15)] | 3000
